For 1 compound, Activity and viability results are on record in ChEMBL document CHEMBL4627357, “An osteoinductive effect of phytol on mouse mesenchymal stem cells (C3H10T1/2) towards osteoblasts” (Bioorg Med Chem Lett, 2020).

Active and inactive are the calls of the source. The calls are words filed in the database; no cut-off is given here.

Data set [1] deals with C3H 10T1/2. Briefly: Upregulation of Runx2 mRNA expression in mouse C3H10T1/2 at 40 uM measured after 72 hrs by SYBR green based RT-qPCR analysis. The class given is functional, cell-based. For orientation: Quantitative PCR measures a nucleic acid by following its amplification.
The test system of data set [2] is C3H 10T1/2. Briefly: Cytotoxicity against mouse C3H10T1/2 cells assessed as spindle shaped and flattened appearance at 40 uM measured after 72 hrs by FDA staining based assay. The class given is cell-based. The conditions noted are these: c3h 10t1/2, 72 h.
A short description of data set [3]: Cytotoxicity against mouse C3H10T1/2 cells assessed as live cells at 40 uM measured after 72 hrs by MUSE cell analyzer (reference value: 95.8%). Format: cell-based, C3H 10T1/2. The conditions noted are these: read-out: Activity.
Data set [4] has as its system C3H 10T1/2. Briefly: Cytotoxicity against mouse C3H10T1/2 cells assessed as dead cells at 40 uM measured after 72 hrs by MUSE cell analyzer (reference value: 4.2%). The class given is cell-based. The conditions noted are these: c3h 10t1/2, 72 h.
The subject of data set [5] is C3H 10T1/2. The data set can be described thus: Induction of osteoblast differentiation in mouse C3H10T1/2 cells assessed as increase in calcium deposition at 40 uM measured after 14 days by alizarin red staining based assay. The class given is functional, cell-based.
The test system of data set [6] is C3H 10T1/2. The data set can be described thus: Induction of osteoblast differentiation in mouse C3H10T1/2 cells assessed as formation of mineralized nodule at 40 uM measured after 14 days by von-Kossa staining based assay. The class given is functional, cell-based.
Data set [7] relates to C3H 10T1/2. Briefly: Induction of osteoblast differentiation in mouse C3H10T1/2 cells assessed as increase in Runx2 mRNA expression at 40 uM measured after 3 to 7 days by RT-qPCR analysis. The class given is functional, cell-based.
Data set [8] deals with C3H 10T1/2. The data set can be described thus: Induction of osteoblast differentiation in mouse C3H10T1/2 cells assessed as increase in ALP mRNA expression at 40 uM measured after 3 days by RT-qPCR analysis. Format: functional, cell-based.
The test system of data set [9] is C3H 10T1/2. Briefly: Induction of osteoblast differentiation in mouse C3H10T1/2 cells assessed as increase in type-1 collagen mRNA expression at 40 uM measured after 3 days by RT-qPCR analysis. The class given is functional, cell-based.
In data set [10] the test system is C3H 10T1/2. Briefly: Induction of osteoblast differentiation in mouse C3H10T1/2 cells assessed as increase in osteocalcin mRNA expression at 40 uM measured after 3 to 7 days by RT-qPCR analysis. Format: functional, cell-based.
Data set [11] has as its system C3H 10T1/2. Briefly: Induction of osteoblast differentiation in mouse C3H10T1/2 cells assessed as increase in osterix mRNA expression at 40 uM measured after 3 to 7 days by RT-qPCR analysis. The class given is functional, cell-based.
Data set [12] deals with C3H 10T1/2. Briefly: Induction of osteoblast differentiation in mouse C3H10T1/2 cells assessed as increase in ALP mRNA expression at 40 uM measured after 7 days by RT-qPCR analysis. The class given is functional, cell-based.
In data set [13] the test system is C3H 10T1/2. The data set can be described thus: Induction of osteoblast differentiation in mouse C3H10T1/2 cells assessed as increase in type-1 collagen mRNA expression at 40 uM measured after 7 days by RT-qPCR analysis. Format: functional, cell-based.
For data set [14], the system named is C3H 10T1/2. Briefly: Induction of osteoblast differentiation in mouse C3H10T1/2 cells assessed as upregulation of miRNA-21a mRNA expression at 40 uM measured after 7 days by RT-qPCR analysis. The class given is functional, cell-based.
In data set [15] the test system is C3H 10T1/2. Briefly: Induction of osteoblast differentiation in mouse C3H10T1/2 cells assessed as upregulation in Runx2 protein expression at 40 uM measured after 7 days by Western blot analysis. The class given is functional, cell-based.
Data set [16] has as its system C3H 10T1/2. The data set can be described thus: Induction of osteoblast differentiation in mouse C3H10T1/2 cells assessed as downregulation of Smad7 protein expression at 40 uM measured after 7 days by Western blot analysis. The class given is functional, cell-based.

Regarding `C/C(=C\CO)CCC[C@H](C)CCC[C@H](C)CCCC(C)C` [TRANS-PHYTOL], the outcome in the data set with C3H 10T1/2 [1], with C3H 10T1/2 [5], with C3H 10T1/2 [6], in the data set on C3H 10T1/2 [7], in the data set on C3H 10T1/2 [12] and with C3H 10T1/2 [13] was Active. In addition, the outcome in the data set with C3H 10T1/2 [14], in the data set on C3H 10T1/2 [15] and with C3H 10T1/2 [16] was Active. For the same compound, the Activity entry with C3H 10T1/2 [2] is listed as “Non-Toxic”; in the data set with C3H 10T1/2 [4], 4%. Also, the viability at 72 h, 40 µM in [3] was found to be 96%. For the same compound, the result with C3H 10T1/2 [8], in the data set on C3H 10T1/2 [9], in the data set with C3H 10T1/2 [10] and with C3H 10T1/2 [11] was inactive.
